Measured values taken from patent publication US20130217664A1, “NOVEL COMPOUNDS USEFUL FOR THE TREATMENT OF DEGENERATIVE AND INFLAMMATORY DISEASES” (priority 2012, published 2013).
Read-outs that look alike come from different tables or passages of the source.

Legend:
human JAK1 = target: T1, human JAK1 (Homo sapiens, UniProt P23458); experiment: JAK1 inhibition assay (polyGT substrate / Ulight-JAK1 peptide); assay type: biochemical; details: recombinant human JAK1 catalytic domain; polyGT or Ulight-JAK1 peptide assay
T1 construct: catalytic domain, amino acids 866-1154; catalog number PV4774; purchased Invitrogen PV4774
How it was run: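 Two formats. PolyGT radiometric: 45 min at 30 °C, stopped with phosphoric acid, counted as cpm. Ulight-JAK1 peptide: 60 min at room temperature, stopped with Eu-anti-phosphotyrosine/EDTA, read as RFU. Percent inhibition normalised to vehicle and 10 μM staurosporine.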

human JAK3 = target: T2, human JAK3 (Homo sapiens, UniProt P52333); experiment: JAK3 inhibition assay; assay type: biochemical; details: recombinant human JAK3 catalytic domain; polyGT substrate
T2 construct: catalytic domain (amino acids 781-1124; catalog number PV3855); purchased Invitrogen PV3855
How it was run: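 Radiometric kinase assay: 0.5 ng JAK3 with 2.5 μg polyGT in Tris pH 7.5/MgCl2 buffer, 1 μM ATP plus 0.25 μCi 33P-γ-ATP, 1% DMSO, 45 min at 30 °C, stopped with phosphoric acid.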

human TYK2 = target: T3, human TYK2 (Homo sapiens, UniProt P29597); experiment: TYK2 inhibition assay; assay type: biochemical; details: recombinant human TYK2 catalytic domain, polyGT substrate
T3 construct: catalytic domain (amino acids 871-1187; catalog number 08-147); purchased Carna Biosciences 08-147
T3 sequence (P29597 871-1187): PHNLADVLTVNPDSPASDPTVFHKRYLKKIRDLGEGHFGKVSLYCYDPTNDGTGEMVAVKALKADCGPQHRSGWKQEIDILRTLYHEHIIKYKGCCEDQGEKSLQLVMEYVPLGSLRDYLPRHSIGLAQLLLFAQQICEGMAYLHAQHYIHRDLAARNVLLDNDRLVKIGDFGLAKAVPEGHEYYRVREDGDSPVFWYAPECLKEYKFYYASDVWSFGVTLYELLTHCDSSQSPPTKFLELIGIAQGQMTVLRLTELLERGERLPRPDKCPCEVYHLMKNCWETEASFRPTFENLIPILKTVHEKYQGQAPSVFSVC
How it was run: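 Radiometric kinase reaction run 90 min at 30 °C, stopped with phosphoric acid, washed and scintillation-counted.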

[1] = tested on: pSTAT1(2)-luciferase reporter in HeLa cells triggered with human OSM; experiment: JAK-STAT signalling assay; assay type: cell-based; details: HeLa cells, pSTAT1(2)-luciferase reporter, human OSM 33 ng/mL, read-out: JAK-STAT IC50
Experimental: JAK-STAT Signalling Assay
HeLa cells were maintained in Dulbecco's Modified Eagle's Medium (DMEM) containing 10% heat inactivated fetal calf serum, 100 U/mL penicillin and 100 μg/mL streptomycin. HeLa cells were used at 70% confluence for transfection. 20,000 cells in 87 μL cell culture medium were transiently transfected with 40 ng pSTAT1(2)-luciferase reporter (Panomics), 8 ng of LacZ reporter as internal control reporter and 52 ng of pBSK using 0.32 μL Jet-PEI (Polyplus) as transfection reagent per well in 96-well plate format. After overnight incubation at 37° C., 5% CO2, transfection medium was removed. 81 μL of DMEM+1.5% heat inactivated fetal calf serum was added. 9 μL compound at 10× concentration was added for 60 min and then 10 μL of human OSM (Peprotech) at 33 ng/mL final concentration.
After overnight incubation at 37° C., 5% CO2 cells were lysed by adding 100 μL lysis buffer/well (PBS, 0.9 mM CaCl2, 0.5 mM MgCl2, 10% Trehalose, 0.05% Tergitol NP9, 0.3% BSA).
40 μL of cell lysate was used to read β-galactosidase activity by adding 180 μL β-Gal solution (30 μL ONPG 4 mg/mL+150 μL β-Galactosidase buffer (0.06 M Na2HPO4, 0.04 M NaH2PO4, 1 mM MgCl2)) for 20 min.
Luciferase activity was measured using 40 μL cell lysate plus 40 μL of Steadylite as described by the manufacturer (Perkin Elmer), on the Envision (Perkin Elmer).
The positive and negative controls were used to calculate z′ and ‘percent inhibition’ (PIN) values.
Percentage inhibition=((fluorescence determined in the presence of vehicle−fluorescence determined for sample with test compound present)divided by(fluorescence determined in the presence of vehicle−fluorescence determined for sample without trigger))*100.
PIN values were plotted for compounds tested in dose-response and EC50 values were derived.

human JAK2 = target: T4, human JAK2 (Homo sapiens, UniProt O60674); experiment: JAK2 inhibition assay (polyGT substrate / Ulight-JAK1 peptide); assay type: biochemical; details: recombinant human JAK2 catalytic domain; polyGT or Ulight-JAK1 peptide assay
T4 construct: catalytic domain (amino acids 808-1132; catalog number PV4210); GST; purchased Invitrogen PV4210
How it was run: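 Radiometric: 0.025 mU JAK2 with 2.5 μg polyGT, 1 μM ATP plus ^33P-ATP in MOPS pH 7.5 buffer, 1% DMSO, 90 min at 30° C.; filter counting. Alternative TR-FRET format with Ulight-JAK1 peptide, 60 min at room temperature, Eu-anti-phosphotyrosine detection.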

T1 sequence (P23458 866-1154): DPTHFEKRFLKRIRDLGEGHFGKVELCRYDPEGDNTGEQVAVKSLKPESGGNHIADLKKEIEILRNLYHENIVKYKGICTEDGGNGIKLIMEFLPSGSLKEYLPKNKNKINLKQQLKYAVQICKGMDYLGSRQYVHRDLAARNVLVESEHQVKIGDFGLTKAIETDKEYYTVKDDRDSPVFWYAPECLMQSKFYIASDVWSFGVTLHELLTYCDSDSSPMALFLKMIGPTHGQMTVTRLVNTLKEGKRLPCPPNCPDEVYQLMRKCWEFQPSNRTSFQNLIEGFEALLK
T2 sequence (P52333 781-1124): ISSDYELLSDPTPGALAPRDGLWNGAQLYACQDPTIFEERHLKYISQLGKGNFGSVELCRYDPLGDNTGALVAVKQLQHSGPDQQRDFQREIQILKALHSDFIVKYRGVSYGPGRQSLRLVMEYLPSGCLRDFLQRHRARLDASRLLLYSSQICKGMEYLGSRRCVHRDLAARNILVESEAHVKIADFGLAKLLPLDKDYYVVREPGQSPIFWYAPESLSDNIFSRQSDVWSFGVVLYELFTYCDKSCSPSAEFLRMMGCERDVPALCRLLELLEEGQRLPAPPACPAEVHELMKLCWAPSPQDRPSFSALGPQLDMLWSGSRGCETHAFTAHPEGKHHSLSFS
T4 sequence (O60674 808-1132): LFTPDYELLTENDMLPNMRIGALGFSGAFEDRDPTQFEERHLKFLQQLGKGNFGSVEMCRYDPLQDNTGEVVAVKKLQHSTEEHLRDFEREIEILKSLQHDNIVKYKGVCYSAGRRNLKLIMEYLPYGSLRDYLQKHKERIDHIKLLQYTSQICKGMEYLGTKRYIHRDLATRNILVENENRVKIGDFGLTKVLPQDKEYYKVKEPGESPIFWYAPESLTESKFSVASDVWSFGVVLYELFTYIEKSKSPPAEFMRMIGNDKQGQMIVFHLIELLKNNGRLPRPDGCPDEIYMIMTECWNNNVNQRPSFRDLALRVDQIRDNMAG

Row | IC50 (human JAK1) | IC50 (human JAK3) | IC50 (human TYK2) | IC50 ([1]; Homo sapiens, HeLa) | IC50 [1] | IC50 (human JAK2) | SMILES
1 | 0.01 to 100 nM | 501 to 1000 nM | 101 to 500 nM | 501 to 1000 nM |  |  | CCc1cc(O[C@@H]2CCN(S(C)(=O)=O)C2)ccc1N(C)c1cc2c(cn1)ncn2C [Compound 259, (R)-N-(2-ethyl-4-(1-(methylsulfonyl)pyrrolidin-3-yloxy)phenyl)-N,1-dimethyl-1H-imidazo[4,5-c]pyridin-6-amine]
2 | 0.01 to 100 nM | 101 to 500 nM | 0.01 to 100 nM | 1 to 500 nM |  |  | CCc1cc(C2=CCN(C(=O)N3CCC3)CC2)ccc1N(C)c1cc2c(cn1)ncn2C [Compound 205, azetidin-1-yl(4-(3-ethyl-4-(methyl(1-methyl-1H-imidazo[4,5-c]pyridin-6-yl)amino)phenyl)-5,6-dihydropyridin-1(2H)-yl)methanone]
3 | 0.01 to 100 nM | 101 to 500 nM | 0.01 to 100 nM | 1 to 500 nM |  |  | CCc1cc(C2=CCOCC2)ccc1N(C)c1cc2c(cn1)ncn2C [Compound 153, N-(4-(3,6-dihydro-2H-pyran-4-yl)-2-ethylphenyl)-N,1-dimethyl-1H-imidazo[4,5-c]pyridin-6-amine]
4 | 0.01 to 100 nM | 0.01 to 100 nM | 0.01 to 100 nM | 1 to 500 nM |  |  | CCc1cc(C2=CCN(C(=O)C(C)NC(=O)OC(C)(C)C)CC2)ccc1N(C)c1cc2c(cn1)ncn2C (centres unmarked) [Compound 249, tert-butyl 1-(4-(3-ethyl-4-(methyl(1-methyl-1H-imidazo[4,5-c]pyridin-6-yl)amino)phenyl)-5,6-dihydropyridin-1(2H)-yl)-1-oxopropan-2-ylcarbamate]
5 | 501 to 1000 nM | > 1000 nM | > 1000 nM |  | > 1000 nM |  | COc1cc(-c2cnn(C)c2)ncc1N(C)c1cc2c(cn1)ncn2C [Compound 263, N-(4-methoxy-6-(1-methyl-1H-pyrazol-4-yl)pyridin-3-yl)-N,1-dimethyl-1H-imidazo[4,5-c]pyridin-6-amine]
6 | 0.01 to 100 nM | 101 to 500 nM | 0.01 to 100 nM | 1 to 500 nM |  |  | CCc1cc(-c2cnn(Cc3ccc(F)cc3)c2)ccc1N(C)c1cc2c(cn1)ncn2C [Compound 238, N-(2-ethyl-4-(1-(4-fluorobenzyl)-1H-pyrazol-4-yl)phenyl)-N,1-dimethyl-1H-imidazo[4,5-c]pyridin-6-amine]
7 | 0.01 to 100 nM | > 1000 nM | 101 to 500 nM | 501 to 1000 nM |  |  | CCc1cc(-c2ccc(C)nc2)ccc1N(C)c1cc2c(cn1)ncn2C [Compound 131, N-(2-ethyl-4-(6-methylpyridin-3-yl)phenyl)-N,1-dimethyl-1H-imidazo[4,5-c]pyridin-6-amine]
8 | 0.01 to 100 nM | > 1000 nM | 101 to 500 nM | 501 to 1000 nM |  |  | CCc1cc(-c2nc(C)no2)ccc1N(C)c1cc2c(cn1)ncn2C [Compound 178, N-(2-Ethyl-4-(3-methyl-1,2,4-oxadiazol-5-yl)phenyl)-N,1-dimethyl-1H-imidazo[4,5-d]pyridin-6-amine]
9 | 501 to 1000 nM | > 1000 nM | > 1000 nM |  | > 1000 nM |  | COc1cc(C2CCN(C(=O)CC#N)CC2)ncc1N(C)c1cc2c(cn1)ncn2C [Compound 265]
10 | 0.01 to 100 nM | 101 to 500 nM | 0.01 to 100 nM | 1 to 500 nM |  |  | CCc1cc(C2=CCN(C(=O)C(C)(C)O)CC2)ccc1N(C)c1cc2c(cn1)ncn2C [Compound 231, 1-(4-(3-ethyl-4-(methyl(1-methyl-1H-imidazo[4,5-c]pyridin-6-yl)amino)phenyl)-5,6-dihydropyridin-1(2H)-yl)-2-hydroxy-2-methylpropan-1-one]
11 | 0.01 to 100 nM | 501 to 1000 nM | 0.01 to 100 nM | > 1000 nM |  |  | CCc1cc(-c2cnccn2)ccc1N(C)c1cc2c(cn1)ncn2C [Compound 144, N-(2-ethyl-4-(pyrazin-2-yl)phenyl)-N,1-dimethyl-1H-imidazo[4,5-c]pyridin-6-amine]
12 | 0.01 to 100 nM | 101 to 500 nM | 0.01 to 100 nM |  | > 1000 nM |  | CCc1cc(C2CCN(C(=O)COC)CC2)ccc1N(C)c1cc2c(cn1)ncn2C [Compound 226, 1-(4-(3-ethyl-4-(methyl(1-methyl-1H-imidazo[4,5-c]pyridin-6-yl)amino)phenyl)piperidin-1-yl)-2-methoxyethanone]
13 | 0.01 to 100 nM | 0.01 to 100 nM | 0.01 to 100 nM | > 1000 nM |  |  | CCc1cc(C2=CCN(S(=O)(=O)CC(F)(F)F)CC2)ccc1N(C)c1cc2c(cn1)ncn2C [Compound 232, N-(2-ethyl-4-(1-(2,2,2-trifluoroethylsulfonyl)-1,2,3,6-tetrahydropyridin-4-yl)phenyl)-N,1-dimethyl-1H-imidazo[4,5-c]pyridin-6-amine]
14 | 0.01 to 100 nM | > 1000 nM | 0.01 to 100 nM | 501 to 1000 nM |  |  | CCc1cc(-c2noc(CCC#N)n2)ccc1N(C)c1cc2c(cn1)ncn2C [Compound 156, 3-(3-(3-Ethyl-4-(methyl(1-methyl-1H-imidazo[4,5-c]pyridin-6-yl)amino)phenyl)-1,2,4-oxadiazol-5-yl)propanenitrile]
15 |  |  |  | > 1000 nM |  |  | CCc1cc(CNC(=O)OC(C)(C)C)ccc1N(C)c1cc2c(cn1)ncn2C [Compound 252, tert-Butyl 3-ethyl-4-(methyl(1-methyl-1H-imidazo[4,5-c]pyridin-6-yl)amino)benzylcarbamate]
16 | 101 to 500 nM | > 1000 nM | > 1000 nM |  |  | > 1000 nM | CCc1cc(CN2CC(C)(C)C2)ccc1N(C)c1cc2c(cn1)ncn2C [Compound 382, [4-(3,3-Dimethyl-azetidin-1-ylmethyl)-2-ethyl-phenyl]-methyl-(1-methyl-1H-imidazo[4,5-c]pyridin-6-yl)-amine]
17 | 101 to 500 nM | > 1000 nM | > 1000 nM |  |  | 501 to 1000 nM | CN(c1ccc(/C=C/C#N)cc1)c1cc2c(cn1)ncn2C [Compound 345, (E)-3-{4-[Methyl-(1-methyl-1H-imidazo[4,5-c]pyridin-6-yl)-amino]-phenyl}-acrylonitrile]
18 |  |  |  | > 1000 nM |  |  | CCc1cc(-c2nnc(N)s2)ccc1N(C)c1cc2c(cn1)ncn2C [Compound 193, 5-(3-Ethyl-4-(methyl(1-methyl-1H-imidazo[4,5-c]pyridin-6-yl)amino)phenyl)-1,3,4-thiadiazol-2-amine]
19 | 0.01 to 100 nM | 0.01 to 100 nM | 0.01 to 100 nM |  |  | 0.01 to 100 nM | CCc1cc(N2CCC(C#N)C2)ncc1N(C)c1cc2c(cn1)ncn2C (centres unmarked) [Compound 418, 1-{4-Ethyl-5-[methyl-(1-methyl-1H-imidazo[4,5-c]pyridin-6-yl)-amino]-pyridin-2-yl}-pyrrolidine-3-carbonitrile]
20 | 0.01 to 100 nM | > 1000 nM | > 1000 nM |  |  | 101 to 500 nM | CN(c1cc2c(cn1)ncn2C)c1ccc(C2CN(S(=O)(=O)N3CCOCC3)C2)cc1OC(F)F [Compound 371, {2-Difluoromethoxy-4-[1-(morpholine-4-sulfonyl)-azetidin-3-yl]-phenyl}-methyl-(1-methyl-1H-imidazo[4,5-c]pyridin-6-yl)-amine]
